# Laboratory results published in ChEMBL document CHEMBL1759868, “Folate pro-drug of cystamine as an enhanced treatment for nephropathic cystinosis” (Bioorg Med Chem Lett, 2011).
# Active and inactive are the calls of the source. No cut-off for these calls is given here.
# How the values were obtained:
# [1] = Cytotoxicity against human cystinotic Fibroblast at 50 uM for 72 hrs by Alamar blue assay; assay type: cell-based
# Fibroblast = assay: Decrease in intracellular cystine level in human cystinotic Fibroblast at 50 uM for 24 hrs by thiol assay; assay type: functional, cell-based
SMILES,Activity [1],Activity (Fibroblast)
NCCS [CYSTEAMINE],Non-toxic,
Cl.NCCSSCCNC(=O)CC[C@H](NC(=O)c1ccc(NCc2cnc3nc(N)nc(O)c3n2)cc1)C(=O)NCCSSCCN,Non-toxic,Active
